Data as given in patent publication US9212168B2 (priority 2011, dated 2015).

Experiments:
HCV genotype 1a replicon = HCV genotype 1a replicon assay (NS3 protease activity readout); type: cell-based, hepatitis C virus; details: for EC50: Hepatitis C virus, read-out: Genotype 1a, HCV genotype 1a replicon; for Genotype 1a: HCV genotype 1a replicon
Outline: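 Genotype 1a subgenomic replicon cells (APC89, Huh7.5) were treated with compound dose-responses in G418-free medium, 0.5% DMSO final, for 48 or 72 hours at 37° C. Lysate NS3/4a protease activity measured with 15 μM FRET substrate, 20 min at 37° C (ex 340/em 509 nm); EC50 by 4-parameter fit.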

HCV genotype 1b replicon = HCV genotype 1b replicon assay (Renilla luciferase readout); type: cell-based, hepatitis C virus; details: for EC50: Hepatitis C virus, read-out: Genotype 1b; for Genotype 1b: HCV genotype 1b replicon
Outline: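 Huh7-derived APC144 subgenomic replicon cells carrying Renilla luciferase–NS3-NS5B, seeded 10,000/well without G418, then treated with compound dose-responses for 48 h at 37 °C (0.5% DMSO final). Luciferase signal fitted by 4-parameter model to EC50, reported as pEC50.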

SMILES | EC50 (HCV genotype 1a replicon) [nM] | EC50 (HCV genotype 1b replicon) [nM] | Genotype 1a (HCV genotype 1a replicon) | Genotype 1b (HCV genotype 1b replicon)
COC(=O)N[C@H](C(=O)N1C[C@@H](SC)C[C@H]1c1nc(-c2ccc(-c3ccc(C(=O)Nc4ccc(N5CCN(C(=O)[C@]6(C)CCCN6C(=O)[C@@H](NC(=O)OC)C(C)C)C[C@H]5C)nc4)cc3OC(F)(F)F)cc2)c[nH]1)C(C)C [Example 6-9] | < 0.1 | < 0.1 | – | –
COC(=O)N[C@H](C(=O)N1[C@H](c2nc(-c3ccc(-c4ccc(C(=O)Nc5ccc(N6CCN(C(=O)C7CC7(C)C)C[C@H]6C)nc5)cc4OC(F)(F)F)cc3)c[nH]2)C[C@@H]2CCCC[C@@H]21)C(C)C (stereo partly shown) [Example 6-12] | 0.1 to 1 | < 0.1 | – | –
COC(=O)N[C@H](C(=O)N1C[C@@H](C(N)=O)C[C@H]1c1nc(-c2ccc(-c3cc(Cl)c(NC(=O)c4ccc(N5CCN(C(=O)C(C)(C)CO)C[C@H]5C)nc4)cc3OC(F)(F)F)cc2)c[nH]1)C(C)C [Example 15-3] | < 0.1 | < 0.1 | – | –
COC(=O)N[C@H](C(=O)N1C[C@@H](C)C[C@H]1c1nc(-c2ccc(-c3ccc(C(=O)Nc4ccc(N5CCN(C(=O)[C@]6(C)CCCN6C(=O)[C@@H](NC(=O)OC)C(C)C)C[C@H]5C)nc4)cc3)cc2)c[nH]1)C(C)C [Example 4-2] | – | – | D (D represents pEC50>10 (EC50<0.1 nM)) | D (D represents pEC50>10 (EC50<0.1 nM))
COC(=O)N[C@H](C(=O)N1C[C@@H](N(C)C)C[C@H]1c1nc(-c2ccc(-c3ccc(NC(=O)c4ccc(N5CCN(C(=O)C6CC6)C[C@H]5C)nc4)cc3)cc2)c[nH]1)C(C)C [Example 6, ((S)-1-{(2S,4S)-2-[4-(4′-{[6-((R)-4-Cyclopropanecarbonyl-2-methyl-piperazin-1-yl)-pyridine-3-carbonyl]-amino}-biphenyl-4-yl)-1H-imidazol-2-yl]-4-dimethylamino-pyrrolidine-1-carbonyl}-2-methyl-propyl)-carbamic acid methyl ester] | 0.1 to 1 | < 0.1 | – | –
COC(=O)N[C@H](C(=O)N1C[C@@H](C)C[C@H]1c1nc(-c2ccc(-c3ccc(C(=O)Nc4ccc(N5CCN(C(=O)[C@H]6CC6(C)C)C[C@H]5C)nc4)cc3OC(F)(F)F)cc2)c[nH]1)C1CCOCC1 [Example 22-4] | – | – | D (D represents pEC50>10 (EC50<0.1 nM)) | D (D represents pEC50>10 (EC50<0.1 nM))
COC(=O)N[C@H](C(=O)N1C[C@@H](OC)C[C@H]1c1nc(-c2ccc(-c3ccc(C(=O)Nc4ccc(N5CCN(C(=O)C(C)(C)C)C[C@H]5C)nc4)cc3OC(F)(F)F)cc2)c[nH]1)C1CCOCC1 [Example 22-12] | – | – | D (D represents pEC50>10 (EC50<0.1 nM)) | D (D represents pEC50>10 (EC50<0.1 nM))
C[C@H]1C[C@@H](c2nc(-c3ccc(-c4cc(Cl)c(NC(=O)c5ccc(N6CCN(C(=O)C(C)(C)C)C[C@H]6C)nc5)cc4OC(F)(F)F)cc3)c[nH]2)N(C(=O)[C@@H](c2ccccc2)N2CCCCC2)C1 [Example 13-1] | < 0.1 | < 0.1 | – | –
COC(=O)N[C@H](C(=O)N1C[C@@H](SC)C[C@H]1c1nc(-c2ccc(-c3cc(Cl)c(C(=O)Nc4ccc(N5CCN(C(=O)C(C)(C)C)C[C@H]5C)nc4)cc3OC(F)(F)F)cc2)c[nH]1)C(C)C [Example 5-3] | < 0.1 | < 0.1 | – | –
COC(=O)N[C@H](C(=O)N1CC2(C[C@H]1c1nc(-c3ccc(-c4ccc(C(=O)Nc5ccc(N6CCN(C(=O)C7CC7(C)C)C[C@H]6C)nc5)cc4)cc3)c[nH]1)OCCO2)C(C)C (stereo partly shown) [Example 6-1] | 0.1 to 1 | < 0.1 | – | –
CNC(=O)N1C[C@@H](C)N(c2ccc(C(=O)Nc3cc(OC(F)(F)F)c(-c4ccc(-c5c[nH]c([C@@H]6C[C@H](C)CN6C(=O)[C@@H](c6ccccc6)N6CCCCC6)n5)cc4)cc3Cl)cn2)C[C@@H]1C [Example 5-9] | < 0.1 | < 0.1 | – | –
COC(=O)NC(C(=O)N1CC(C)CC1c1nc(-c2ccc(-c3cc(Cl)c(NC(=O)c4ccc(N5CCN(C(=O)C(C)(C)C)CC5C)nc4)cc3C(F)(F)F)cc2)c[nH]1)C1CC(C)OC(C)C1 (stereo not shown) [Example 19-9] | – | – | D (D represents pEC50>10 (EC50<0.1 nM)) | D (D represents pEC50>10 (EC50<0.1 nM))
COC(=O)N[C@H](C(=O)N1C[C@@H](C)C[C@H]1c1nc(-c2ccc(-c3cc(Cl)c(NC(=O)c4ccc(N5CCN(C(=O)C(C)(C)C)[C@H](C)C5)nc4)cc3OC(F)(F)F)cc2)c[nH]1)C1CCOCC1 [Example 20-6] | – | – | D (D represents pEC50>10 (EC50<0.1 nM)) | D (D represents pEC50>10 (EC50<0.1 nM))
COC(=O)N[C@H](C(=O)N1C[C@@H](C)C[C@H]1c1nc(-c2ccc(-c3cc(Cl)c(NC(=O)c4ccc(N5CCN(C(=O)c6ncc[nH]6)C[C@H]5C)nc4)cc3OC(F)(F)F)cc2)c[nH]1)C(C)C [Example 1-35] | – | – | D (D represents pEC50>10 (EC50<0.1 nM)) | D (D represents pEC50>10 (EC50<0.1 nM))
